Experimental data: publication PMC11087398, “Evaluation of 1,10-phenanthroline-based hydroxamate derivative as dual histone deacetylases/ribonucleotide reductase inhibitor with antitumor activities” (DARU Journal of Pharmaceutical Sciences, 2024)
Where two headings read alike, the source gives them in different places.

Columns and labels:
Cal27 = assay: MTT cell viability assay; type: cell-based, human; settings: mean ± SD, read-out: Antiproliferative activity IC50, Cal27
Procedure: (§1) Human cancer cells (SiHa, HepG2, MCF7, Cal27) were obtained from ATCC, while foreskin fibroblast cells were generated at the Manipal School of Life Sciences. Cells were cultured in DMEM with 10% FBS, maintained in an Eppendorf CellXpert® C170 incubator at 37 °C with 5% CO2, and medium was renewed every 48–72 h.
(§2) Cancer cells (1 × 10^5 cells/mL) and fibroblast cells (5 × 10^4 cells/mL) were seeded in 96-well plates. Test compounds, dissolved in DMSO and diluted in DMEM with 10% FBS, were treated for 48 h. MTT (5 mg/mL) was added, and after 4 h, absorbance was measured at 570 and 630 nm using a VARIOSKAN™ 3001 multimode multiplate reader.

HepG2 = assay: MTT cell viability assay; type: cell-based, human; settings: mean ± SD, read-out: Antiproliferative activity IC50, HepG2
Procedure: as §1, §2

MCF7 = assay: MTT cell viability assay; type: cell-based, human; settings: mean ± SD, read-out: Antiproliferative activity IC50, MCF7
Procedure: as §1, §2

SiHa = assay: MTT cell viability assay; type: cell-based, human; settings: 48 h, mean ± SD, read-out: Antiproliferative activity IC50, SiHa
Procedure: as §1, §2

[1] = test system: foreskin fibroblast cells; assay: MTT cell viability assay; type: cell-based; settings: 48 h, normal human fibroblast cells, mean ± SD, read-out: Antiproliferative activity IC50, Fibroblast
Procedure: as §1, §2

SiHa cells [2] = assay: Anchorage-dependent colony formation assay; type: cell-based, human; settings: IC50 concentration of each compound
Procedure: SiHa cells (500 cells/well) were seeded in 6 cm plates. After 24 h, cells were treated with the IC50 concentration of test compounds and incubated for 21 days with media changes every three days. On day 21, colonies were stained with 0.4% crystal violet for 10 min, washed twice with PBS, and then counted.

SiHa cells [3] = assay: Apoptosis assay (Annexin V/propidium iodide flow cytometry); type: cell-based, human; settings: 48 h
Procedure: SiHa cells were cultured at a density of 1 × 10^6 cells/mL in 10 cm plates. Upon reaching 80% confluency, cells were subjected to 48 h treatment with test compounds (IC50 and IC70). Following two PBS washes, trypsinization, and suspension in Annexin V binding buffer, cells were incubated, stained with propidium iodide, and analyzed for apoptosis using Apoptosis Detection Kit I and Partec CyFlow Space with FloMax software (Germany).

SiHa cells [4] = assay: In vitro cell migration (scratch) assay; type: cell-based, human; settings: IC50 concentration, 48 h post-wounding, control group 19.64%
Procedure: SiHa cells were cultured in 6-well plates using DMEM with 10% FBS until they formed a monolayer. A scratch was done on the cell monolayer by using a sterile 200 μL pipette tip. Subsequently, the cells were treated with the PA at IC50 concentration, and the extent of cell migration was assessed by analyzing the wound area at 0th, 24th, and 48th h time intervals using ImageJ software (Wayne Rasband, USA).

[5] = test system: HDAC (SiHa cell nuclear extracts); assay: In vitro fluorescent HDAC assay; type: biochemical, human; settings: substrate Boc-Lys(Ac)-AMC, read-out: HDAC inhibitory activity IC50
Procedure: In a black 96-well plate, HDAC assay buffer, varied concentrations of test compounds, and SiHa cell nucleus extract were combined and incubated for 30 min. The enzymatic reaction commenced with the addition of the fluorescent substrate, Boc-Lys(Ac)-AMC, and lasted for 2 h at 37 °C. Reaction termination involved adding a developer, followed by an additional incubation at room temperature for 10–15 min. Fluorescence intensity was assessed using a VARIOSKAN™ 3001 multimode multiplate reader at an excitation wavelength of 354 nm and emission wavelength of 450 nm.

[6] = test system: RR (3H-thymidine incorporation into DNA of SiHa cells); assay: Inhibition of DNA synthesis (3H-thymidine incorporation) as RR activity; type: cell-based; settings: Homo sapiens, 48 h treatment
Procedure: SiHa cells (5 × 10^6) were treated with varying test compound concentrations for 48 h. Following incubation, cells were pulsed with 5 nM ^3H-thymidine for 30 min at 37 °C. After collection, washing, and total DNA extraction, radioactivity was quantified as counts per min (CPM) using a Tri-carb 2900TR liquid scintillation (Perkin Elmer, USA).

[7] = Partition coefficient 1-octanol/water; type: physicochemical; settings: 1-octanol/water (MOPS buffer), pH 7.4; read-out: log (Kpart7.4), partition coefficient
Procedure: The partition coefficient (Kpart) of PA was determined in a 1-octanol/water system. 1-octanol was added to MOPS buffer containing PA (IC50), and OD at 276 nm was measured before and after each addition. Kpart values were calculated..

[8] = test system: Acetyl-Histone H3 in SiHa cells; assay: Western blot of acetylated histone H3; type: cell-based, human; settings: PA 10 and 20 µM, 48 h
Procedure: SiHa cells (2 × 10^5 cells/well) were cultured in 6-well plates, treated with varied concentrations of test compounds for 48 h, and lysed in RIPA buffer. After centrifugation, protein content was quantified using Bradford assay. Protein extracts were subjected to SDS-PAGE and were transferred to the nitrocellulose membrane. Following blocking, membranes were probed with CST antibodies (Acetyl-Histone H3, B-Actin) at 1:3000 dilution and secondary anti-rabbit antibodies (1:5000 dilution). iBright™ CL1500 Imaging System captured the images.

[9] = test system: intracellular dNTP levels in SiHa cells; assay: dNTP pool analysis (HPLC); type: cell-based, human; settings: IC50 concentration
Procedure: Harvested duplicate samples (1 million cells each) were washed with ice-cold PBS, and an extraction solution (6.5: 3.5 of acetonitrile and water mixture with 100 mM formic acid) was added. After incubation and centrifugation, the solution was lyophilized, reconstituted in 100 µL HPLC buffer A, and analyzed on a Waters Symmetry C18 column using HPLC. A stepwise gradient of Buffer A and B was employed, with detection at 260 and 280 nm, as mentioned by Crona et al., in 2016 [34]. Quantification was based on peak area measurements in the chromatogram, providing relative quantification of the analyzed components.

SiHa cells [10] = assay: Cell cycle analysis (propidium iodide flow cytometry); type: cell-based, human; settings: IC50 concentration, 48 h
Text: After trypsinization, cells were fixed in 70% ethanol, treated with RNase-A, stained with propidium iodide, and analyzed using the Partec CyFlow Space with FloMax software (Germany).

SiHa cells [11] = assay: Suppression of cytotoxicity by iron supplementation (FAC co-administration, MTT); type: cell-based, human; settings: PA at IC50 with FAC 25, 50, 100 µM, MTT after 48 h
Procedure: To confirm the intracellular Fe^3+ chelation ability of PA, three different concentrations (25, 50, 100 µM) of ferric ammonium citrate (FAC) with PA (IC50) were co-administered in SiHa cells, and the cell viability was assessed using MTT after 48 h.

c1cnc2c(c1)ccc1cccnc12 [1,10-Phenanthroline]
IC50 (Cal27; Homo sapiens, CAL-27, 48 h): 53 ± 2.18 µM
IC50 (HepG2; Homo sapiens, HepG2, 48 h): > 100 µM
IC50 (MCF7; Homo sapiens, MCF7, 48 h): 48.8 ± 12 µM
IC50 (SiHa; Homo sapiens, SiHa): 42.9 ± 2.53 µM
IC50 [1]: > 100 µM

CC(=O)N(O)CCCCCNC(=O)CCC(=O)N(O)CCCCCNC(=O)CCC(=O)N(O)CCCCCN [DFO, Deferoxamine]
IC50 (Cal27; Homo sapiens, CAL-27, 48 h): 46 ± 3.07 µM
IC50 (HepG2; Homo sapiens, HepG2, 48 h): > 100 µM
IC50 (MCF7; Homo sapiens, MCF7, 48 h): > 100 µM
IC50 (SiHa; Homo sapiens, SiHa): 71.5 ± 5.02 µM
IC50 [1]: > 100 µM
clonogenic efficiency (colony formation) (SiHa cells [2]): 44.63%

NC(=O)NO [HU, Hydroxyurea]
IC50 (Cal27; 48 h): > 100 µM
IC50 (HepG2; 48 h): > 100 µM
IC50 (MCF7; 48 h): > 100 µM
IC50 (SiHa): > 100 µM
IC50 [1]: > 100 µM

O=C(CCCCCCC(=O)Nc1cc2cccnc2c2ncccc12)NO [PA, N^1-hydroxy-N^8-(1,10-phenanthrolin-5-yl)octanediamide]
IC50 (Cal27; Homo sapiens, CAL-27, 48 h): 51 ± 3.08 µM
IC50 (HepG2; Homo sapiens, HepG2, 48 h): > 100 µM
IC50 (MCF7; Homo sapiens, MCF7, 48 h): > 100 µM
IC50 (SiHa; Homo sapiens, SiHa): 16.4 ± 4.71 µM
IC50 [1]: > 100 µM
early apoptosis (SiHa cells [3]; IC50 concentration): 3.63%
early apoptosis (SiHa cells [3]; IC70 concentration): 2.58%
clonogenic efficiency (colony formation) (SiHa cells [2]): 1.99%
wound area percentage (SiHa cells [4]): 56.33%
IC50 [5]: 10.8 µM
IC50 [6]: 9.34 µM
logD [7]: 0.82
acetylated Histone H3 levels (western blot) [8]: dose-dependent increase in acetylated Histone H3 levels
intracellular dNTP levels [9]: marked decrease in intracellular dNTP levels
cell cycle progression (SiHa cells [10]): increased the cell population at the S phase and a concentration-dependent elevation in the G2/M phase
effect of ferric ammonium citrate (FAC) co-administration on cytotoxicity (SiHa cells [11]): FAC reduced PA cell toxicity in a concentration-dependent manner
